Patent US7714006B1, “Methods of modifying the bioavailability of metaxalone” (King Pharmaceuticals Research & Development, Inc., priority 2001, dated 2010)

Assay: Effects of age and gender on fasted PK parameters, study 106 (2×400 mg without food)
Assay type: in vivo, human
Experimental: In addition, the robustness of the results are assessed by applying similar analysis approaches to the data from two other studies: • Study AN151607-101 (hereafter referred to as the 101 study): a two-period, randomized crossover trial with treatment conditions 1×400 mg with food and 1×400 mg without food; • Study AN151607-106 (hereafter referred to as the 106 study): a single dose trial with treatment condition 2×400 mg without food.
Study 106 was a single dose trial conducted in 48 healthy volunteers. The mean age was 24.7 years, with a range from 18 to 50 years. The single treatment condition in this study was 2×400 mg without food. Blood samples for PK analyses were obtained at the same time points as in the 103 and 105 studies.
First, Pearson and Spearman correlation coefficients between age and each of the three PK parameters were computed. The correlation coefficients and two-sided p-values from the test of the null hypothesis of no association are shown below in TABLE VIIIa:
Linear regression models using the natural logarithm of each of the three PK parameters as the dependent variable and age as the independent variable were fitted in order to estimate the magnitude of the associations with age.
Study 106 was a single dose trial conducted in 48 healthy volunteers (24 males, 24 females). The mean age was 24.7 years, with a range from 18 to 50 years. The single treatment condition in this study was 2×400 mg without food. Blood samples for PK analyses were obtained at the same time points as in the 103 and 105 studies.
The same regression modeling strategy as was described in Sections 3.2 and 3.3 was also used. In the initial regression models with a gender effect and separate age effects for males and females, the parameter estimates for all three variables were negative for males and positive for females. In addition, the age effect in females was statistically significant for ln(AUC(last)) and ln(AUC(inf)). However, the tests of equality between the age effects for males and females (i.e., the age-by-gender interaction) were not statistically significant for any of the three variables; the p-values ranged from 0.08 to 0.11.

Cc1cc(C)cc(OCC2CNC(=O)O2)c1 (stereo not drawn) [metaxalone, 5-[(3,5-dimethylphenoxy)methyl]-2 oxazolidinone]
Pearson correlation, age vs ln(AUC(inf)) (females n=24): 0.416 | Pearson correlation, age vs ln(AUC(last)) (females n=24): 0.431 | Pearson correlation, age vs ln(Cmax) (females n=24): 0.336 | Spearman correlation, age vs ln(AUC(inf)) (females n=24): 0.368 | Spearman correlation, age vs ln(AUC(last)) (females n=24): 0.428 | Spearman correlation, age vs ln(Cmax) (females n=24): 0.279 | Pearson correlation, age vs ln(AUC(inf)) (males n=24): −0.184 | Pearson correlation, age vs ln(AUC(last)) (males n=24): −0.178 | Pearson correlation, age vs ln(Cmax) (males n=24): −0.202 | Spearman correlation, age vs ln(AUC(inf)) (males n=24): −0.368 | Spearman correlation, age vs ln(AUC(last)) (males n=24): −0.365 | Spearman correlation, age vs ln(Cmax) (males n=24): −0.316 | Pearson correlation, age vs ln(AUC(inf)) (n=48): 0.348 | Pearson correlation, age vs ln(AUC(last)) (n=48): 0.349 | Pearson correlation, age vs ln(Cmax) (n=48): 0.260 | Spearman correlation, age vs ln(AUC(inf)) (n=48): 0.173 | Spearman correlation, age vs ln(AUC(last)) (n=48): 0.189 | Spearman correlation, age vs ln(Cmax) (n=48): 0.125
